± gives the standard deviation of the averaged measurements.
Assays:
Conditions in all cases: treatment time: 3 days
UT-SCC-24A [1] = test: drug sensitivity score (DSS); higher = more sensitive
Protocol: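 HNSCC cell lines (500 cells/well, 384-well) were cultured on plastic, on top of (2D) or embedded (3D) in Matrigel or human leiomyoma matrix Myogel (500 ug/mL; Myogel 3D mixed with rat collagen I). Cells were treated for 3 days with 5 ten-fold concentrations of each drug, and viability was read by CellTiter-Glo. Suffixes _1/_2/_3 on drug names are replicates.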

UT-SCC-14 [2] = test: maximal % inhibition of viability relative to DMSO; higher = stronger effect
Protocol: (§1)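 HNSCC cell lines (500 cells/well, 384-well) were cultured on plastic, on top of (2D) or embedded (3D) in Matrigel or human leiomyoma matrix Myogel (500 ug/mL; Myogel 3D mixed with rat collagen I). Cells were treated for 3 days with 5 ten-fold concentrations of each drug, and viability was read by CellTiter-Glo. Viability was normalised to DMSO and benzethonium chloride controls and fitted with the FIMM DSRT pipeline to give IC50 (nM), maximal % inhibition and DSS. Suffixes _1/_2/_3 are replicates. Only inhibition-mode (IC50) fits are kept.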

UT-SCC-42B [3] = test: as above
Protocol: as §1

UT-SCC-81 [4] = test: as above
Protocol: as §1

UT-SCC-24A [5] = test: as above
Protocol: (§2)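 HNSCC cell lines (500 cells/well, 384-well) were cultured on plastic, on top of (2D) or embedded (3D) in Matrigel or human leiomyoma matrix Myogel (500 ug/mL; Myogel 3D mixed with rat collagen I). Cells were treated for 3 days with 5 ten-fold concentrations of each drug, and viability was read by CellTiter-Glo. Viability was normalised to DMSO (0% inhibition) and 100 uM benzethonium chloride (100% inhibition) controls and fitted with the FIMM DSRT pipeline to give IC50 (nM), maximal % inhibition and the drug sensitivity score (DSS). Suffixes _1/_2/_3 on drug names are replicates.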

UT-SCC-106A = test: drug sensitivity score (DSS); higher = more sensitive; extreme values may be limits of the assay
In short: (§3)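 HPV-negative HNSCC cell lines were plated at 500 cells/well in 384-well plates, either on plastic, on wells coated with Matrigel or Myogel (500 µg/mL), or embedded in Matrigel or Myogel plus rat collagen I. Each compound was tested at five 10-fold concentrations over 3 days. Viability was measured by CellTiter-Glo 2.0 luminescence, and IC50, maximal inhibition and drug sensitivity score came from percent-inhibition dose–response curves fitted in the FIMM pipeline after normalisation to vehicle (0.1% DMSO) and cell-killing control wells.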

UT-SCC-14 [6] = test: as above
In short: as §3

UT-SCC-24B = test: as above
In short: as §3

UT-SCC-28 = test: as above
In short: as §3

UT-SCC-40 = test: as above
In short: as §3

UT-SCC-42A = test: as above
In short: as §3

UT-SCC-42B [7] = test: as above
In short: as §3

UT-SCC-44 = test: as above
In short: as §3

UT-SCC-73 = test: as above
In short: as §3

UT-SCC-81 [8] = test: as above
In short: as §3

UT-SCC-8 = test: as above
In short: as §3

UT-SCC-24A [9] = test: relative IC50 (midpoint of the fitted curve; maximal inhibition may be below 50%); higher = less potent
Protocol: as §2

[10] = culture condition: embedded in Matrigel
[11] = culture condition: embedded in Myogel + collagen I
[12] = culture condition: on top of Matrigel
[13] = culture condition: on top of Myogel
[14] = culture condition: plastic 2D (no matrix)

Cc1c(CN2CCN(C(=O)[C@H](C)O)CC2)sc2c(N3CCOCC3)nc(-c3cnc(N)nc3)nc12 [Apitolisib]
drug sensitivity score (UT-SCC-24A [1]; [10]): 12.5 ± 2.4 DSS | drug sensitivity score (UT-SCC-24A [1]; [11]): 13.1 ± 1.9 DSS | drug sensitivity score (UT-SCC-24A [1]; [12]): 13 ± 0.85 DSS | drug sensitivity score (UT-SCC-24A [1]; [13]): 9.97 ± 0.15 DSS | drug sensitivity score (UT-SCC-24A [1]; [14]): 13.5 ± 1.6 DSS | maximal % inhibition of viability (UT-SCC-14 [2]; [10]): 84.33 ± 0.67% | maximal % inhibition of viability (UT-SCC-14 [2]; [11]): 80.8 ± 3% | maximal % inhibition of viability (UT-SCC-14 [2]; [12]): 85.5 ± 3.3% | maximal % inhibition of viability (UT-SCC-14 [2]; [13]): 79.4 ± 0.92% | maximal % inhibition of viability (UT-SCC-14 [2]; [14]): 82.1 ± 3.8% | maximal % inhibition of viability (UT-SCC-42B [3]; [10]): 86.7 ± 1.6% | maximal % inhibition of viability (UT-SCC-42B [3]; [12]): 76.3 ± 2.2% | maximal % inhibition of viability (UT-SCC-42B [3]; [13]): 58.6 ± 2% | maximal % inhibition of viability (UT-SCC-42B [3]; [14]): 64.5 ± 1.8% | maximal % inhibition of viability (UT-SCC-81 [4]; [10]): 93.5 ± 1.6% | maximal % inhibition of viability (UT-SCC-81 [4]; [11]): 81.1 ± 4.5% | maximal % inhibition of viability (UT-SCC-81 [4]; [12]): 88.93 ± 0.85% | maximal % inhibition of viability (UT-SCC-81 [4]; [13]): 79.9 ± 1.5% | maximal % inhibition of viability (UT-SCC-81 [4]; [14]): 82.8 ± 3.6% | maximal % inhibition of viability (UT-SCC-24A [5]; [10]): 90.3 ± 1.6% | maximal % inhibition of viability (UT-SCC-24A [5]; [11]): 85.4 ± 2.3% | maximal % inhibition of viability (UT-SCC-24A [5]; [12]): 87.7 ± 0.2% | maximal % inhibition of viability (UT-SCC-24A [5]; [13]): 83.4 ± 1.9% | maximal % inhibition of viability (UT-SCC-24A [5]; [14]): 88.57 ± 0.29% | drug sensitivity score (UT-SCC-106A; [10]): 11.7 ± 0.66 DSS | drug sensitivity score (UT-SCC-106A; [11]): 6.97 ± 1 DSS | drug sensitivity score (UT-SCC-106A; [12]): 10.8 ± 0.35 DSS | drug sensitivity score (UT-SCC-106A; [13]): 6.23 ± 0.6 DSS | drug sensitivity score (UT-SCC-106A; [14]): 9.27 ± 1 DSS | drug sensitivity score (UT-SCC-14 [6]; [10]): 8.77 ± 1.1 DSS | drug sensitivity score (UT-SCC-14 [6]; [11]): 6.9 ± 1.9 DSS | drug sensitivity score (UT-SCC-14 [6]; [12]): 7.97 ± 1.6 DSS | drug sensitivity score (UT-SCC-14 [6]; [13]): 6.43 ± 1.1 DSS | drug sensitivity score (UT-SCC-14 [6]; [14]): 6.47 ± 1.7 DSS | drug sensitivity score (UT-SCC-24B; [10]): 10.8 ± 1.8 DSS | drug sensitivity score (UT-SCC-24B; [11]): 11.8 ± 1.1 DSS | drug sensitivity score (UT-SCC-24B; [12]): 10.6 ± 0.76 DSS | drug sensitivity score (UT-SCC-24B; [13]): 9.6 ± 0.2 DSS | drug sensitivity score (UT-SCC-24B; [14]): 11.1 ± 1 DSS | drug sensitivity score (UT-SCC-28; [10]): 10.4 ± 1.3 DSS | drug sensitivity score (UT-SCC-28; [11]): 9 ± 2 DSS | drug sensitivity score (UT-SCC-28; [12]): 12.4 ± 1.5 DSS | drug sensitivity score (UT-SCC-28; [14]): 10.8 ± 0.51 DSS | drug sensitivity score (UT-SCC-40; [10]): 9.4 ± 0.27 DSS | drug sensitivity score (UT-SCC-40; [11]): 7.23 ± 0.25 DSS | drug sensitivity score (UT-SCC-40; [12]): 8.07 ± 0.49 DSS | drug sensitivity score (UT-SCC-40; [13]): 5.3 ± 1.7 DSS | drug sensitivity score (UT-SCC-40; [14]): 6.33 ± 1.2 DSS | drug sensitivity score (UT-SCC-42A; [10]): 7.43 ± 0.45 DSS | drug sensitivity score (UT-SCC-42A; [11]): 8.1 ± 1.3 DSS | drug sensitivity score (UT-SCC-42A; [12]): 8.03 ± 1.3 DSS | drug sensitivity score (UT-SCC-42A; [13]): 7.07 ± 0.4 DSS | drug sensitivity score (UT-SCC-42A; [14]): 8.8 ± 1.1 DSS | drug sensitivity score (UT-SCC-42B [7]; [10]): 7.13 ± 2.4 DSS | drug sensitivity score (UT-SCC-42B [7]; [12]): 5.47 ± 0.81 DSS | drug sensitivity score (UT-SCC-42B [7]; [13]): 4.4 ± 1 DSS | drug sensitivity score (UT-SCC-42B [7]; [14]): 4.43 ± 0.93 DSS | drug sensitivity score (UT-SCC-44; [10]): 9.77 ± 0.86 DSS | drug sensitivity score (UT-SCC-44; [11]): 6.17 ± 1.4 DSS | drug sensitivity score (UT-SCC-44; [12]): 8.4 ± 0.1 DSS | drug sensitivity score (UT-SCC-44; [13]): 8.03 ± 2.9 DSS | drug sensitivity score (UT-SCC-44; [14]): 6.67 ± 0.55 DSS | drug sensitivity score (UT-SCC-73; [10]): 9 ± 1.2 DSS | drug sensitivity score (UT-SCC-73; [11]): 8.2 ± 1.4 DSS | drug sensitivity score (UT-SCC-73; [12]): 7.8 ± 0.36 DSS | drug sensitivity score (UT-SCC-73; [13]): 7.37 ± 0.15 DSS | drug sensitivity score (UT-SCC-73; [14]): 7.23 ± 1.2 DSS | drug sensitivity score (UT-SCC-81 [8]; [10]): 14.9 ± 3 DSS | drug sensitivity score (UT-SCC-81 [8]; [11]): 10.4 ± 0.81 DSS | drug sensitivity score (UT-SCC-81 [8]; [12]): 8.87 ± 0.71 DSS | drug sensitivity score (UT-SCC-81 [8]; [13]): 8.53 ± 1.1 DSS | drug sensitivity score (UT-SCC-81 [8]; [14]): 8.8 ± 1.8 DSS | drug sensitivity score (UT-SCC-8; [10]): 9.63 ± 0.38 DSS | drug sensitivity score (UT-SCC-8; [11]): 6.2 ± 2.1 DSS | drug sensitivity score (UT-SCC-8; [12]): 9.23 ± 0.51 DSS | drug sensitivity score (UT-SCC-8; [13]): 9.13 ± 1 DSS | drug sensitivity score (UT-SCC-8; [14]): 9.17 ± 0.32 DSS | relative IC50 (UT-SCC-24A [9]; [10]): 577 nM | relative IC50 (UT-SCC-24A [9]; [11]): 436 nM | relative IC50 (UT-SCC-24A [9]; [12]): 483 nM | relative IC50 (UT-SCC-24A [9]; [13]): 818 nM | relative IC50 (UT-SCC-24A [9]; [14]): 416 nM

— the supplement of paper PMC7017272
